In the supplement of paper PMC10307832:

How the values were obtained:
Assay in all cases: relative viability (nuclei count vs DMSO), 5 days (fraction); higher = more cells survive
BEN = test system: BEN
Outline: (§1)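 Lung cancer cell lines, seeded in 1536-well plates, were treated the following day by pin tool with a single drug or with five library-drug doses (not always all listed) in √10 steps on top of a fixed anchor-drug dose. Cells were fixed and nuclei stained in one step after 5 days, and nuclei were counted. Relative viability is the nuclei count for treated wells divided by that for vehicle wells, reported as medians of duplicate plates.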

EKVX = test system: EKVX
Outline: as §1

HARA = test system: HARA
Outline: as §1

HCC-366 = test system: HCC-366
Outline: as §1

HCC-827 = test system: HCC-827
Outline: as §1

LOU-NH91 = test system: LOU-NH91
Outline: as §1

NCI-H1355 = test system: NCI-H1355
Outline: as §1

NCI-H1395 = test system: NCI-H1395
Outline: as §1

NCI-H1437 = test system: NCI-H1437
Outline: as §1

NCI-H1734 = test system: NCI-H1734
Outline: as §1

NCI-H1792 = test system: NCI-H1792
Outline: as §1

NCI-H1993 = test system: NCI-H1993
Outline: as §1

NCI-H2009 = test system: NCI-H2009
Outline: as §1

NCI-H2087 = test system: NCI-H2087
Outline: as §1

NCI-H2170 = test system: NCI-H2170
Outline: as §1

NCI-H2342 = test system: NCI-H2342
Outline: as §1

NCI-H2405 = test system: NCI-H2405
Outline: as §1

NCI-H522 = test system: NCI-H522
Outline: as §1

NCI-H647 = test system: NCI-H647
Outline: as §1

NCI-H661 = test system: NCI-H661
Outline: as §1

SK-LU-1 = test system: SK-LU-1
Outline: as §1

SK-MES-1 = test system: SK-MES-1
Outline: as §1

SMILES: CCN(CC)CCCCNc1ncc2cc(-c3cc(OC)cc(OC)c3)c(NC(=O)NC(C)(C)C)nc2n1 + O=C(c1cc(Cc2n[nH]c(=O)c3ccccc23)ccc1F)N1CCN(C(=O)C2CC2)CC1 [Olaparib] (partner 8 µM)
- relative viability (BEN; first compound 0.01 µM): 1.18
- relative viability (BEN; first compound 0.03162 µM): 0.97
- relative viability (BEN; first compound 0.1 µM): 1.01
- relative viability (BEN; first compound 0.3162 µM): 1.17
- relative viability (BEN; first compound 1 µM): 1.01
- relative viability (EKVX; first compound 0.03162 µM): 0.873
- relative viability (EKVX; first compound 0.1 µM): 1.07
- relative viability (EKVX; first compound 0.3162 µM): 1.05
- relative viability (EKVX; first compound 1 µM): 0.868
- relative viability (HARA; first compound 0.01 µM): 0.697
- relative viability (HARA; first compound 0.03162 µM): 0.62
- relative viability (HARA; first compound 0.1 µM): 0.561
- relative viability (HARA; first compound 0.3162 µM): 0.811
- relative viability (HARA; first compound 1 µM): 0.443
- relative viability (HCC-366; first compound 0.01 µM): 0.323
- relative viability (HCC-366; first compound 0.03162 µM): 0.374
- relative viability (HCC-366; first compound 0.1 µM): 0.362
- relative viability (HCC-366; first compound 0.3162 µM): 0.405
- relative viability (HCC-366; first compound 1 µM): 0.346
- relative viability (HCC-827; first compound 0.01 µM): 0.611
- relative viability (HCC-827; first compound 0.03162 µM): 0.668
- relative viability (HCC-827; first compound 0.1 µM): 0.702
- relative viability (HCC-827; first compound 0.3162 µM): 0.682
- relative viability (HCC-827; first compound 1 µM): 0.735
- relative viability (LOU-NH91; first compound 0.01 µM): 0.895
- relative viability (LOU-NH91; first compound 0.03162 µM): 0.9
- relative viability (LOU-NH91; first compound 0.1 µM): 0.954
- relative viability (LOU-NH91; first compound 0.3162 µM): 0.952
- relative viability (LOU-NH91; first compound 1 µM): 0.884
- relative viability (NCI-H1355; first compound 0.01 µM): 0.789
- relative viability (NCI-H1355; first compound 0.03162 µM): 0.719
- relative viability (NCI-H1355; first compound 0.1 µM): 0.853
- relative viability (NCI-H1355; first compound 0.3162 µM): 0.83
- relative viability (NCI-H1355; first compound 1 µM): 0.737
- relative viability (NCI-H1395; first compound 0.01 µM): 0.46
- relative viability (NCI-H1395; first compound 0.03162 µM): 0.467
- relative viability (NCI-H1395; first compound 0.1 µM): 0.478
- relative viability (NCI-H1395; first compound 0.3162 µM): 0.497
- relative viability (NCI-H1395; first compound 1 µM): 0.431
- relative viability (NCI-H1437; first compound 0.01 µM): 0.635
- relative viability (NCI-H1437; first compound 0.03162 µM): 0.666
- relative viability (NCI-H1437; first compound 0.1 µM): 0.681
- relative viability (NCI-H1437; first compound 0.3162 µM): 0.642
- relative viability (NCI-H1437; first compound 1 µM): 0.614
- relative viability (NCI-H1734; first compound 0.01 µM): 0.595
- relative viability (NCI-H1734; first compound 0.03162 µM): 0.614
- relative viability (NCI-H1734; first compound 0.1 µM): 0.746
- relative viability (NCI-H1734; first compound 0.3162 µM): 0.638
- relative viability (NCI-H1734; first compound 1 µM): 0.569
- relative viability (NCI-H1792; first compound 0.01 µM): 0.547
- relative viability (NCI-H1792; first compound 0.03162 µM): 0.475
- relative viability (NCI-H1792; first compound 0.1 µM): 0.668
- relative viability (NCI-H1792; first compound 0.3162 µM): 0.77
- relative viability (NCI-H1792; first compound 1 µM): 0.317
- relative viability (NCI-H1993; first compound 0.01 µM): 1.01
- relative viability (NCI-H1993; first compound 0.03162 µM): 1.01
- relative viability (NCI-H1993; first compound 0.1 µM): 1.14
- relative viability (NCI-H1993; first compound 0.3162 µM): 1.26
- relative viability (NCI-H1993; first compound 1 µM): 0.99
- relative viability (NCI-H2009; first compound 0.01 µM): 0.828
- relative viability (NCI-H2009; first compound 0.03162 µM): 0.696
- relative viability (NCI-H2009; first compound 0.1 µM): 0.699
- relative viability (NCI-H2009; first compound 0.3162 µM): 0.75
- relative viability (NCI-H2009; first compound 1 µM): 0.7
- relative viability (NCI-H2087; first compound 0.01 µM): 0.581
- relative viability (NCI-H2087; first compound 0.03162 µM): 0.599
- relative viability (NCI-H2087; first compound 0.1 µM): 0.71
- relative viability (NCI-H2087; first compound 0.3162 µM): 0.735
- relative viability (NCI-H2087; first compound 1 µM): 0.476
- relative viability (NCI-H2170; first compound 0.01 µM): 0.583
- relative viability (NCI-H2170; first compound 0.03162 µM): 0.559
- relative viability (NCI-H2170; first compound 0.1 µM): 0.655
- relative viability (NCI-H2170; first compound 0.3162 µM): 0.676
- relative viability (NCI-H2170; first compound 1 µM): 0.732
- relative viability (NCI-H2342; first compound 0.01 µM): 0.476
- relative viability (NCI-H2342; first compound 0.03162 µM): 0.437
- relative viability (NCI-H2342; first compound 0.1 µM): 0.459
- relative viability (NCI-H2342; first compound 0.3162 µM): 0.509
- relative viability (NCI-H2342; first compound 1 µM): 0.519
- relative viability (NCI-H2405; first compound 0.01 µM): 0.873
- relative viability (NCI-H2405; first compound 0.03162 µM): 0.88
- relative viability (NCI-H2405; first compound 0.1 µM): 1.03
- relative viability (NCI-H2405; first compound 0.3162 µM): 0.952
- relative viability (NCI-H2405; first compound 1 µM): 0.928
- relative viability (NCI-H522; first compound 0.01 µM): 0.687
- relative viability (NCI-H522; first compound 0.03162 µM): 0.544
- relative viability (NCI-H522; first compound 0.1 µM): 0.708
- relative viability (NCI-H522; first compound 0.3162 µM): 0.85
- relative viability (NCI-H522; first compound 1 µM): 0.663
- relative viability (NCI-H647; first compound 0.01 µM): 0.476
- relative viability (NCI-H647; first compound 0.03162 µM): 0.732
- relative viability (NCI-H647; first compound 0.1 µM): 0.674
- relative viability (NCI-H647; first compound 0.3162 µM): 0.563
- relative viability (NCI-H647; first compound 1 µM): 0.393
- relative viability (NCI-H661; first compound 0.01 µM): 0.702
- relative viability (NCI-H661; first compound 0.03162 µM): 0.713
- relative viability (NCI-H661; first compound 0.1 µM): 0.788
- relative viability (NCI-H661; first compound 0.3162 µM): 0.822
- relative viability (NCI-H661; first compound 1 µM): 0.739
- relative viability (SK-LU-1; first compound 0.01 µM): 0.447
- relative viability (SK-LU-1; first compound 0.03162 µM): 0.404
- relative viability (SK-LU-1; first compound 0.1 µM): 0.477
- relative viability (SK-LU-1; first compound 0.3162 µM): 0.472
- relative viability (SK-LU-1; first compound 1 µM): 0.433
- relative viability (SK-MES-1; first compound 0.01 µM): 0.913
- relative viability (SK-MES-1; first compound 0.03162 µM): 0.752
- relative viability (SK-MES-1; first compound 0.1 µM): 0.863
- relative viability (SK-MES-1; first compound 0.3162 µM): 0.735
- relative viability (SK-MES-1; first compound 1 µM): 0.727
